Two compounds from patent US10138282B2, “Peptide antagonist of LL-37” (INDIANA UNIVERSITY RESEARCH AND TECHNOLOGY CORPORATION, priority 2014, dated 2018) can be followed below.

The test system of one data set is TLR3. Put plainly: Confocal microscopy, co-localization with TLR3 in BEAS-2B cells. The class given is cell-based, human. The following applies: with poly(I:C). The procedure:
Cells were grown on poly-L-lysine coated coverslips to 60% confluency. After 1 h incubation with fluorescently-labeled peptides in the absence or presence of poly(I:C), the cells were washed with PBS and fixed with 4% paraformaldehyde for 15 min at room temperature. The cells were again washed with PBS and mounted on glass slides with anti-fade mounting medium and DAPI (Life Technology), then dried overnight in the dark. Micrographs were acquired with a Leica TCS SP5 confocal inverted-base microscope with a 63× oil objective. Images were analyzed by Leica LAS AF and Image J software. Colocalization of fluorophores was quantified using the Image J plug-in tool JACoP (16).
We examined whether it could prevent the trafficking of LL-37/poly(I:C) to endosomes that harbor TLR3. Confocal microscopy was used to examine the effect of LL-29 on the colocalization of LL-37/poly(I:C) with TLR3 in BEAS-2B cells.

A further data set relates to poly(I:C). Put plainly: Fluorescence polarization, peptide binding to poly(I:C). On the procedure:
Peptide binding to poly(I:C) was analyzed by monitoring fluorescence polarization using the Synergy H1 microplate reader (BioTek). Fluorescein-labeled LL-37 was titrated to a 100 μL solution containing poly(I:C) and phosphate buffers at different pHs. Interactions between LL-37 and other peptides were analyzed using LL-37 labeled at the N-terminus with fluorescein (0.1 μM), and peptides were titrated from 1 nM to 1000 nM in phosphate buffer at pH 7.0. Interaction between poly(I:C) and different peptides was determined by titrating fluorescein-labeled poly(I:C) (0.1 μM) with peptides added to final concentrations of 10 to 500 nM in phosphate buffer at pH 7.4. All polarization assays were performed in triplicate.
LL-37 accompanies dsRNA to endosomes containing TLR3. However, it is unknown whether LL-37 will release the dsRNA in endosomes. Johansson et al. (1998) have previously determined that a neutral pH is required for the activity of LL-37. We seek to determine whether LL-37 binding to dsRNA can be affected by pH.
In general terms: In fluorescence polarisation assays a small probe gives low polarisation when free and higher when bound to something large.

The next data set in a line: in vitro. The class given is cell-based. As to conditions: human, Half-life of LL-37 in cells. On the procedure:
Acidification of endosomes can activate cathepsins that can cleave TLR3, 7, and 9 and increase signaling. We examined whether LL-37 would be subject to proteolysis, possibly by cathepsins. BEAS-2B cells were treated with LL-37 in the absence or presence of poly(I:C) for 15 min, then washed with phosphate-buffered saline and incubated with fresh medium. The cells were harvested over time, lysed and subjected to Western blot analysis. LL-37 accumulation decreased over time, with an estimated half-life of 1 h (FIG. 4A, 4B). Cells treated with ammonium chloride or the cathepsin inhibitor Z-FA-FMK had half-lives in excess of 12 h (FIG. 4A, 4B).

Turning to “fLL-37: 5′ carboxyfluorescein coupled to the N-terminus of LL-37 [reference compound]”, in the data set on TLR3, the “Co-localization of peptide with TLR3, in words” value was “found to colocalize with TLR3”. For the same compound, the “Binding to poly(I:C)/dsRNA in fluorescent polarization assay, in words” value with poly(I:C) is listed as “polarization increased as a function of poly(I:C) concentration”.
Broadly, the half-life is how long it takes for the measured level to halve. The low end stands for rapid decline, the high end for slow decline. Take `CC[C@H](C)[C@H](NC(=O)[C@H](CCCCN)NC(=O)[C@H](CCC(=O)O)NC(=O)[C@H](CCCCN)NC(=O)[C@H](CO)NC(=O)[C@H](CCCCN)NC(=O)[C@H](CCCNC(=N)N)NC(=O)[C@H](Cc1ccccc1)NC(=O)[C@H](Cc1ccccc1)NC(=O)[C@H](CC(=O)O)NC(=O)CNC(=O)[C@H](CC(C)C)NC(=O)[C@@H](N)CC(C)C)C(=O)NCC(=O)N[C@@H](CCCCN)C(=O)N[C@@H](CCC(=O)O)C(=O)N[C@@H](Cc1ccccc1)C(=O)N[C@@H](CCCCN)C(=O)N[C@@H](CCCNC(=N)N)C(=O)N[C@H](C(=O)N[C@H](C(=O)N[C@@H](CCC(N)=O)C(=O)N[C@@H](CCCNC(=N)N)C(=O)N[C@H](C(=O)N[C@@H](CCCCN)C(=O)N[C@@H](CC(=O)O)C(=O)N[C@@H](Cc1ccccc1)C(=O)N[C@@H](CC(C)C)C(=O)N[C@@H](CCCNC(=N)N)C(=O)N[C@@H](CC(N)=O)C(=O)N[C@@H](CC(C)C)C(=O)N[C@H](C(=O)N1CCC[C@H]1C(=O)N[C@@H](CCCNC(=N)N)C(=O)N[C@H](C(=O)N[C@@H](CCC(=O)O)C(=O)N[C@@H](CO)C(=O)O)[C@@H](C)O)C(C)C)[C@@H](C)CC)C(C)C)[C@@H](C)CC` [LL-37]: the half-life in the data set “in vitro” and in the data set “in vitro” (cells or culture medium) was around 1 h each time.
